Laboratory results as given in patent publication US12281109B2 (Merck Sharp & Dohme LLC, priority 2019, dated 2025).

Experiments:
HDAC6 = target: T1, HDAC6 (Homo sapiens, UniProt Q9UBN7); assay: Human HDAC enzyme inhibitor Fluor-De-Lys assay, HDAC6; type: biochemical; settings: 1.3 nM total enzyme, 2.5 μM substrate BML-KI104, 3 hours pre-incubation, 60 min reaction, 23° C., 4-parameter fit
T1 sequence (Q9UBN7 1-1215): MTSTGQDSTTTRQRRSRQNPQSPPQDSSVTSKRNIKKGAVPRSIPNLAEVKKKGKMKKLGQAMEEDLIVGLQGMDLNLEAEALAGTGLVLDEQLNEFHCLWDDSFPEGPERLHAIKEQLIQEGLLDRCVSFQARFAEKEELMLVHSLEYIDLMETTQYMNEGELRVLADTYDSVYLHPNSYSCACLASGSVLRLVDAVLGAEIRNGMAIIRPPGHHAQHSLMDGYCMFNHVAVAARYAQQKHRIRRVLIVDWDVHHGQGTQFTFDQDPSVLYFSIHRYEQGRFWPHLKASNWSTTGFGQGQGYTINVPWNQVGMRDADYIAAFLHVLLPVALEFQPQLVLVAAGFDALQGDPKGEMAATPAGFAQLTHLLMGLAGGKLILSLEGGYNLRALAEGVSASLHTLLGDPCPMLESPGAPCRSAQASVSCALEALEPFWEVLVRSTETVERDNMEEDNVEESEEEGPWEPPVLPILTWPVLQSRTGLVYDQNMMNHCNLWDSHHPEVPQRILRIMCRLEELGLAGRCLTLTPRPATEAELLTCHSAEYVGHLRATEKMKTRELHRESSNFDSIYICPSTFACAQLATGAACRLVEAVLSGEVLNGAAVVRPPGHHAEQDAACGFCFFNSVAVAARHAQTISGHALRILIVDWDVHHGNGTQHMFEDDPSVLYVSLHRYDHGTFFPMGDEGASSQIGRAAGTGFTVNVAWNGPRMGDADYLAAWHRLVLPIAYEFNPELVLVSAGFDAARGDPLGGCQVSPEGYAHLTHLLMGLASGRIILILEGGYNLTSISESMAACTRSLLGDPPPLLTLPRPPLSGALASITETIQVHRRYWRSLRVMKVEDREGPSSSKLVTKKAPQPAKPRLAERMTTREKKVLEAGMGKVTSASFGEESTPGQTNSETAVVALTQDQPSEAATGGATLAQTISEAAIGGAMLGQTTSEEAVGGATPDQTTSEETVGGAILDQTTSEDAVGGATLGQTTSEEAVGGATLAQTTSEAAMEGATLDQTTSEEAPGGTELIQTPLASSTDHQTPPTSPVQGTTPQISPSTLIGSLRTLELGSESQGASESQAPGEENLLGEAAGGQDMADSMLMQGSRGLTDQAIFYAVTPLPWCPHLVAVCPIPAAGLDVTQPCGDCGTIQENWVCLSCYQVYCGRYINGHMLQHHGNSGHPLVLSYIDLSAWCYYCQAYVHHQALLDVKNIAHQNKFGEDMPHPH
Description: (§1) Human HDAC Enzyme Inhibitor Fluor-De-Lys Assay Materials
Recombinant human HDAC8 (BML-SE145-0100) and HDAC10 (BML-SE559-0050) enzymes, HDAC substrates BML-KI104 and BML-K1178, and HDAC developer solutions BML-KI105 and BML-KI176 were purchased from Enzo Life Sciences. […] HDAC inhibitor suberoylanilide hydroxamic acid (SAHA) was obtained from Indofine and trichostatin A (TSA) was obtained from Sigma-Aldrich.
(§2) The histone deacetylase activities of HDAC1, HDAC2, HDAC3, HDAC6, and HDAC8 were measured in modified FLUOR DE LYS assays in 384-well format. In this assay, HDAC enzymes are initially incubated with an F-acetyl (or -trifluoroacetyl)-L-lysine-containing substrate with a C-terminal amide having aminomethylcoumarin as the amine component. HDACs cleave the F-acetyl group, rendering the resulting product susceptible to AMC cleavage by trypsin. The released AMC is then detected by its fluorescence.
(§3) The HDAC3/SMRT assay employed buffer B, consisting of 20 mM HEPES, pH 8.0, 1 mM MgCl2, 50 mM NaCl, 2.7 mM KCl, 0.05% BSA, 0.005% Tween 20, and 10 μM IP4. […] The HDAC8 assay employed buffer D, consisting of 20 mM HEPES, pH 8.0, 1 mM MgCl2, 100 mM NaCl, 20 mM KCl, 0.1% n-octyl-β-D-glucoside (Anatrace) and 0.05% BSA. All steps were performed at room temperature (23° C.). The assay was performed by pre-incubating serial dilutions of test compounds with the target HDAC prior to initiation with substrate. Each compound was titrated in a 10-point dose response, using a 1:3 fold dilution scheme, with 0.15 ul of solution added by ECHO555 to the plate, followed by the addition of 20 μl of the appropriate HDAC isoform diluted in appropriate assay buffer. […] Final conditions used for each assay were: 1. […] The reactions were stopped and developed by addition of 30 ul of HDAC developer solution containing a saturating level of HDAC inhibitor as follows: 1.

human HDAC2 = human HDAC2 (Homo sapiens, UniProt Q92769); assay: Human HDAC enzyme inhibitor Fluor-De-Lys assay, HDAC2
Sequence of human HDAC2 (Q92769 whole entry): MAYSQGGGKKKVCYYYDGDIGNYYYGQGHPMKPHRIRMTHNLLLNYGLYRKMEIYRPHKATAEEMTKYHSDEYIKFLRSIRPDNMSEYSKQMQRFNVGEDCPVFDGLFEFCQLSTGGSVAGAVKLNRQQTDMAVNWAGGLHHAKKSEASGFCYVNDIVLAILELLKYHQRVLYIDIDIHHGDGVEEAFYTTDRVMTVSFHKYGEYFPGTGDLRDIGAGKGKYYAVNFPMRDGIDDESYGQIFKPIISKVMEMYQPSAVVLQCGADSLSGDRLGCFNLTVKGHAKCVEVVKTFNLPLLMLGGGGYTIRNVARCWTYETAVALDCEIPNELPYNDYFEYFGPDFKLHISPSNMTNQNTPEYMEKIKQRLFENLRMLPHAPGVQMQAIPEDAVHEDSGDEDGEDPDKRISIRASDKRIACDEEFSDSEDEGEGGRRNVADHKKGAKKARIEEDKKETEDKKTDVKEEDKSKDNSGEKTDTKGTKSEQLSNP
Protocol: as §1, §2, §3

[1] = target: human HDAC3/SMRT heterodimer (Homo sapiens, UniProt O15379); assay: Human HDAC enzyme inhibitor Fluor-De-Lys assay, HDAC3/SMRT
Sequence of human HDAC3/SMRT heterodimer (O15379 whole entry): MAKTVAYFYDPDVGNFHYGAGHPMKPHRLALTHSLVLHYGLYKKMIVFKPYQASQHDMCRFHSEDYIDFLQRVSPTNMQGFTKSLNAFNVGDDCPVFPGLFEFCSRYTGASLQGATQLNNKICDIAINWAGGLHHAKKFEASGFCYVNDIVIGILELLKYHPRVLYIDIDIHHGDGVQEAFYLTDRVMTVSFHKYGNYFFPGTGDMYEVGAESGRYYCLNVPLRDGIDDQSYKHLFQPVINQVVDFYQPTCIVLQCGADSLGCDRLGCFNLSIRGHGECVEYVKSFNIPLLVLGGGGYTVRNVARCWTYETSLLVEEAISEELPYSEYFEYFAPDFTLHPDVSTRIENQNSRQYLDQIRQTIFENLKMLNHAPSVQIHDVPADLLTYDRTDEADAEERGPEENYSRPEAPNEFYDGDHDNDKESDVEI
Sequence of human HDAC3/SMRT heterodimer (Q9Y618 1-899 partner limits assumed): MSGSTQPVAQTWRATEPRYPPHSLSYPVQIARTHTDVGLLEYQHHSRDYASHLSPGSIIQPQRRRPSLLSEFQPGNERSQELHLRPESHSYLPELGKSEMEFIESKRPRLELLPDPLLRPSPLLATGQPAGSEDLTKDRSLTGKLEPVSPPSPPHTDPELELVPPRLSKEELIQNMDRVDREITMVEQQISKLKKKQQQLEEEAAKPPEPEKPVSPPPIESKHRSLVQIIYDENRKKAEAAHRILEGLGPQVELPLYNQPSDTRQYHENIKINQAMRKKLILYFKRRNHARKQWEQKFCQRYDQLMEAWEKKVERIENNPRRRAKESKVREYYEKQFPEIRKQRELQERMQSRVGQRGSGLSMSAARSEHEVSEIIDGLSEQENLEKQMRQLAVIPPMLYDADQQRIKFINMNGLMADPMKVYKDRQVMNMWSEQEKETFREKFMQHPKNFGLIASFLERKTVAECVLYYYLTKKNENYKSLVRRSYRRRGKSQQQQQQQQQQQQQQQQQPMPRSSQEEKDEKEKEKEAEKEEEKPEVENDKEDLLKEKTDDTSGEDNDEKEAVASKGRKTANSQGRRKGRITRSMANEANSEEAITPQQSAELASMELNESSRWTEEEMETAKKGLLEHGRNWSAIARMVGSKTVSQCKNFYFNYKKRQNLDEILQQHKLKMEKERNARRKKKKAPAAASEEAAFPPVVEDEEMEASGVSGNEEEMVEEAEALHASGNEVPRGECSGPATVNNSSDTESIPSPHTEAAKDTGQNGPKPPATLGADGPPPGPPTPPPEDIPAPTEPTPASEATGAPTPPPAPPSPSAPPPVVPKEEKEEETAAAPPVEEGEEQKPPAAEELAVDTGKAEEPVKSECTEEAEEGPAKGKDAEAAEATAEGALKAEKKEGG
Protocol: as §1, §2, §3

human HDAC1 = human HDAC1 (Homo sapiens, UniProt Q13547); assay: Human HDAC enzyme inhibitor Fluor-De-Lys assay, HDAC1
Sequence of human HDAC1 (Q13547 whole entry): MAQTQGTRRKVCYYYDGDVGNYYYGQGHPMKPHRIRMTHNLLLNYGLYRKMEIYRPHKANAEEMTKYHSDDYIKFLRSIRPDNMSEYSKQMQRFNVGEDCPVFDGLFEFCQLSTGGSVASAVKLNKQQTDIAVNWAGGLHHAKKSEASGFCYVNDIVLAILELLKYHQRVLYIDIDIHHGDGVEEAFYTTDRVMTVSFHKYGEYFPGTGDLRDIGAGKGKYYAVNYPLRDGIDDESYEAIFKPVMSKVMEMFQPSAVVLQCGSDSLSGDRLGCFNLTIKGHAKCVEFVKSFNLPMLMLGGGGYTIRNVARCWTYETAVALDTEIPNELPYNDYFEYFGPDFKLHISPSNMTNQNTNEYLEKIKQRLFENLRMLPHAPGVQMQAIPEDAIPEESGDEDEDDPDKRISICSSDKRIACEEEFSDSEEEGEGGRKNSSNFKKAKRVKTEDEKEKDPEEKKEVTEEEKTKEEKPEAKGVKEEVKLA
Protocol: as §1, §2, §3

Row | Compound | IC50 (HDAC6) [µM] | IC50 (human HDAC2) [µM] | IC50 [1] [µM] | IC50 (human HDAC1) [µM]
1 | Nc1cc(F)c(F)cc1C(=O)NCCCC[C@H](NC(=O)c1cncs1)c1ncc(-c2ccc3ccccc3c2)[nH]1 [Example 27, (S)-N-(5-(2-amino-4,5-difluorobenzamido)-1-(5-(naphthalen-2-yl)-1H-imidazol-2-yl)pentyl)thiazole-5-carboxamide] | ≥ 45 |  |  | 
2 | Nc1ccc(F)c(F)c1C(=O)NCCCC[C@H](NC(=O)c1cncs1)c1ncc(-c2ccc3ccccc3c2)[nH]1 [Example 9, (S)-N-(5-(6-amino-2,3-difluorobenzamido)-1-(5-(naphthalen-2-yl)-1H-imidazol-2-yl)pntyl)thiazole-5-carboxamide] | ≥ 45 | 15.7 | 0.1 | 7.88
3 | CSc1cc(F)ccc1C(=O)NCCCC[C@H](NC(=O)c1cncs1)c1ncc(-c2ccc3ccccc3c2)[nH]1 [Example 5, (S)-N-(5-(4-fluoro-2-(methylthio)benzamido)-1-(5-(naphthalen-2-yl)-1H-imidazol-2-yl)pentyl)thiazole-5-carboxamide] | ≥ 45 |  |  | 
4 | CSc1cc([N+](=O)[O-])ccc1C(=O)NCCCC[C@H](NC(=O)c1cncs1)c1ncc(-c2ccc3ccccc3c2)[nH]1 [Example 43, (S)-N-(5-(2-(methylthio)-4-nitrobenzamido)-1-(5-(naphthalen-2-yl)-1H-imidazol-2-yl)pentyl)thiazole-5-carboxamide] |  | ≥ 45 | 7 | ≥ 45

Now from value to molecule:

Row | IC50 (HDAC6) [µM] | IC50 (human HDAC2) [µM] | IC50 [1] [µM] | IC50 (human HDAC1) [µM] | Compound
5 |  | ≥ 45 | 0.958 | ≥ 45 | COc1nc2ccccc2cc1-c1cnc(C2(CCCCNC(=O)c3ccc(F)cc3SC)CCC(=O)N2)[nH]1 (centres unmarked) [Example 63]
6 |  | ≥ 45 | 0.671 | ≥ 45 | COc1nc2ccccc2cc1-c1cnc(C2(CCCCNC(=O)c3ccccc3SC)CCC(=O)N2)[nH]1 (centres unmarked) [Example 62, N-(4-(2-(5-(2-methoxyquinolin-3-yl)-1H-imidazol-2-yl)-5-oxopyrrolidin-2-yl)butyl)-2-(methylthio)benzamide]
7 | 11.6 |  |  |  | CCN1CCC2(CC1)C[C@@H]2C(=O)N[C@@H](CCCCNC(=O)c1ccccc1SC)c1ncc(-c2cc3ccccc3nc2OC)[nH]1 [Example 60, (S)-6-ethyl-N-((S)-1-(5-(2-methoxyquinolin-3-yl)-1H-imidazol-2-yl)-5-(2-(methylthio)benzamido)pentyl)-6-azaspiro[2.5]octane-1-carboxamide]
8 |  | ≥ 45 | 0.379 | ≥ 45 | COc1ccc2[nH]c(C)c(C(C)C(=O)N[C@@H](CCCCNC(=O)c3ccccc3SC)c3ncc(-c4cc5ccccc5nc4OC)[nH]3)c2c1 (stereo partly drawn) [Example 58, N-((5S)-5-(2-(5-methoxy-2-methyl-1H-indol-3-yl)propanamido)-5-(5-(2-methoxyquinolin-3-yl)-1H-imidazol-2-yl)pentyl)-2-(methylthio)benzamide]
9 | ≥ 45 |  |  |  | COc1nc2ccccc2cc1-c1cnc([C@H](CCCCNC(=O)c2nc(C)ccc2O)NC(=O)c2cncs2)[nH]1 [Example 61, (S)-N-(5-(3-hydroxy-6-methylpicolinamido)-1-(5-(2-methoxyquinolin-3-yl)-1H-imidazol-2-yl)pentyl)thiazole-5-carboxamide]
